Measurements published in patent US7288552B2, “Piperidine derivatives, process for preparation thereof, and pharmaceutical composition for alzheimer's disease containing the same” (STC NARA Co., Ltd., priority 2001, dated 2007).

Key:
[1] = biological target: T1, β-amyloid (1-42) (Homo sapiens, UniProt P05067); assay: Inhibition of β-amyloid (1-42) aggregation (thioflavin T fluorescence); assay type: biochemical; conditions: 5 μM β-amyloid 1-42, 37° C., 26 hours
T1 construct: β-amyloid (1-42) was a product of American Peptide Co., U.S.A; purchased American Peptide Co., U.S.A
Text: Experiment for Measuring Inhibition of β-amyloid Aggregation
As the materials used for measuring β-amyloid aggregation, β-amyloid (1-42) was a product of American Peptide Co., U.S.A.; and thioflavin T, phosphate buffered saline tablets, and dimethyl sulfoxide (DMSO, 99.5%) were products of Sigma Chemical Co., U.S.A., and high purity reagents were selected for other reagents.
3. Experiment for Measuring Inhibition of β-amyloid (1-42) Aggregation
Fluorescent analysis was used in measuring β-amyloid aggregation. This peptide compound was kept in the deep freezer (−80° C.), and the final concentration used in the mesurement was 5 μM. Compounds that need to be analyzed were dissolved in 99.5% DMSO, and fluorescent substance was prepared by dissolving thioflavin T (5 μM) in 0.01 M sodium phosphate buffer.
The procedure for aggregation reaction was as follows. To 0.01 M sodium phosphate buffer (92.5 μl) was added fixed concentration of a compound, for measuring purpose, (5 μl) and 5 μM β-amyloid 1-42 (2.5 μl). The resulting mixture was kept at 37° C. for 26 hours to aggregate. 5 μM tioflavin T (2000 μl) was added thereto, and then fluorescent strength was measured with fluorescent spectrometer.

[2] = biological target: T2, acetylcholinesterase (Type V-S: from electric eel) (Electrophorus electricus, UniProt O42275); assay: Measurement of acetylcholinesterase activity (modified Ellman's method); assay type: biochemical; conditions: 0.03 U enzyme, 37° C., 412 nm; read-out: AChE Inhibition (IC50)
T2 construct: purchased Sigma Chemical Co., U.S.A. Type V-S
Text: Experiment for Measuring Acetylcholinesterase Inhibition Effect
The compounds used for measuring acetylcholinesterase (AChE) activity such as acetylcholinesterase (Type V-S: from electric eel), acetylcholine iodide, 5,5-dithio-bis(2-nitro benzoic acid), and neostigmine bromide, were products of Sigma Chemical Co., U.S.A., and high purity reagents were selected for other reagents.
3. Measurement of Acetylcholinesterase Activity
Modified Ellman's method for measuring enzyme activity was used to meet with the measurement of acetylcholinesterase activity. The enzyme was separated into certain amount, and kept under 80° C. below zero. The final concentration of the enzyme used in the experiment was 0.03 unit concentration. 1000 μM of […] dissolved in 0.1 M sodium phosphate buffer (pH 8.0) was used for substrate. As for dye reagent, 5,5-dithio-bis-(2-nitrobenzoic acid) (39.6 mg) and sodium bicarbonate(15 mg) dissolved in 10 mL sodium phosphate buffer (0.1M, pH 7.0) was used.
The procedure for the enzyme reaction was as follows. After adding 200 μl DTNB and 100 μl enzyme (0.03 U) to 2 mL sodium phosphate buffer (pH 8.0), the resulting mixture was pre-heated at 37° C. for 10 minutes. To the resulting mixture 200 μl substrate was added, and allowed to react for 3 minutes. The spectrometer of finished reaction was measured at 412 nm wave. IC50 value connected to activity inhibition was measured by quantal-dose response.

[3] = test system: ICR mice; assay: Acute toxicity test on animals; assay type: in vivo; conditions: 50 mg/kg to 500 mg/kg intraperitoneal, single injection, observed for 10 days
Description: In order for a compound to be comprised in the pharmaceutical composition for treating Alzheimer's disease, it must be nontoxic. […] This test followed the protocol of Korea Food & Drug Administration. […] The compounds used for the test were diluted with wheat germ oil.

[4] = test system: patients with Alzheimer's disease; conditions: cited from earlier work

T1 sequence (P05067 672-713 limits assumed): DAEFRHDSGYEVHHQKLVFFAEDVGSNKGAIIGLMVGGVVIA
T2 sequence (O42275 24-633): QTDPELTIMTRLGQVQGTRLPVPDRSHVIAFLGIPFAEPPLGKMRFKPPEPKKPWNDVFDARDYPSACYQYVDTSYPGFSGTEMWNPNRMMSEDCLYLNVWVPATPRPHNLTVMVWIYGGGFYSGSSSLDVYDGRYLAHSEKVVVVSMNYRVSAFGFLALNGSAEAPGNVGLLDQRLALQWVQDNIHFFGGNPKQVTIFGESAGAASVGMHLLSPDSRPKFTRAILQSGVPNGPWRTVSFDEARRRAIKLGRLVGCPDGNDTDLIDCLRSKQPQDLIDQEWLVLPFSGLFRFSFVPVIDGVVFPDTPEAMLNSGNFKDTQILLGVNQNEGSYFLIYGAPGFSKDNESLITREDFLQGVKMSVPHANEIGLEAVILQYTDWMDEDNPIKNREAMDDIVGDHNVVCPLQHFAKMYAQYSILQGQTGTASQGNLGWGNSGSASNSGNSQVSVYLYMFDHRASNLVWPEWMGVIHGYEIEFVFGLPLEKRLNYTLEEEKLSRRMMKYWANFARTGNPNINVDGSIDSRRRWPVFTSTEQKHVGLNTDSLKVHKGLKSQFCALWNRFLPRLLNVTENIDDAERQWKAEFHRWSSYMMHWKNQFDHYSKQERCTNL

Row | Compound | IC50 [1] [µM] | IC50 [2] [µM] | death rate [3] | share of patients with Alzheimer's disease in whom efficacious [4]
1 | O=C(OCCCCN1CCC(OC(c2ccccc2)c2ccccc2)CC1)c1ccc([N+](=O)[O-])cc1 [Example 1, 4-[4-(benzhydryloxy)piperidino]butyl-4-nitrobenzoate] | 53.1 | 7.2 | – | –
2 | O=C(OCCCCN1CCC(OC(c2ccccc2)c2ccccc2)CC1)c1ccc(Cl)cc1 [Example 2, 4-[4-(benzhydryloxy)piperidino]butyl-4-chlorobenzoate] | 28.2 | 0.3 | no death | –
3 | O=C(OCCCCN1CCC(OC(c2ccccc2)c2ccccc2)CC1)c1ccc(F)cc1 [Example 3, 4-[4-(benzhydryloxy)piperidino]butyl 4-fluorobenzoate] | 36.3 | 0.84 | – | –
4 | O=C(OCCCCN1CCC(OC(c2ccccc2)c2ccccc2)CC1)c1ccccc1 [Example 4, 4-[4-(benzhydryloxy)piperidino]butyl benzoate] | 40.3 | 1.3 | – | –
5 | CC(C)(C)c1ccc(C(=O)OCCCCN2CCC(OC(c3ccccc3)c3ccccc3)CC2)cc1 [Example 6, 4-[4-(benzhydryloxy)piperidino]butyl 4-(tert-butyl)benzoate] | – | – | no death | –
6 | O=C(OCCCCN1CCC(OC(c2ccccc2)c2ccccc2)CC1)c1cccc(F)c1 [Example 8, 4-[4-(benzhydryloxy)piperidino]butyl 3-fluorobenzoate] | 33.7 | 70.7 | – | –
7 | O=C(Nc1ccc(F)cc1)OCCCCN1CCC(OC(c2ccccc2)c2ccccc2)CC1 [Example 10, 4-[4-(benzhydryloxy)piperidino]butyl N-(4-fluorophenyl)carbamate] | 114 | 2.45 | – | –
8 | O=C(OCCCCN1CCC(OC(c2ccccc2)c2ccccc2)CC1)c1cccnc1 [Example 11, 4-[4-(benzhydryloxy)piperidino]butyl nitcotinate] | 61.2 | > 150 | – | –
9 | O=C(OCCCCN1CCC(OCc2ccccc2)CC1)c1ccc([N+](=O)[O-])cc1 [Example 12, 4-[4-(benzyloxy)piperidino]butyl 4-nitrobenzoate] | – | > 100 | – | –
10 | O=C(OCCCCN1CCC(OCc2ccccc2)CC1)c1ccc(Cl)cc1 [Example 13, 4-[4-(benzyloxy)piperidino]butyl 4-chlorobenzoate] | – | > 100 | – | –
11 | O=C(OCCCCN1CCC(OCc2ccccc2)CC1)c1ccc(F)cc1 [Example 14, 4-[4-(benzyloxy)piperidino]butyl 4-fluorobenzoate] | – | > 100 | – | –
12 | O=C(OCCCCN1CCC(OCc2ccccc2)CC1)c1ccccc1 [Example 15, 4-[4-(benzyloxy)piperidino]butyl benzoate] | – | > 100 | – | –
13 | CC(C)c1ccc(C(=O)OCCCCN2CCC(OCc3ccccc3)CC2)cc1 [Example 16, 4-[4-(benzyloxy)piperidino]butyl 4-isopropylbenzoate] | – | 14.8 | – | –
14 | CC(C)(C)c1ccc(C(=O)OCCCCN2CCC(OCc3ccccc3)CC2)cc1 [Example 17, 4-[4-(benzyloxy)piperidino]butyl 4-(tert-butyl)benzoate] | – | 12.2 | – | –
15 | O=C(OCCCCN1CCC(OCc2ccccc2)CC1)c1cccc(Cl)c1 [Example 18, 4-[4-(benzyloxy)piperidino]butyl 3-chlorobenzoate] | – | > 100 | – | –
16 | O=C(OCCCCN1CCC(OCc2ccccc2)CC1)c1cccc(F)c1 [Example 19, 4-[4-(benzyloxy)piperidino]butyl 3-fluorobenzoate] | – | > 100 | – | –
17 | Nc1c2c(nc3ccccc13)CCCC2 [Tarcrine] | – | – | – | about 25%
